Data published in PubChem BioAssay (NCI).
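Interpolation was linear, between the two tested concentrations surrounding the appropriate level; five concentrations were tested over 48 hours in 96-well plates. The concentration for 50% growth inhibition is given as GI50. At the TGI there is no net growth.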

Key:
Assay in all cases: NCI tumour cell line growth inhibition, 48 h
[1] = test system: 786-0 renal
[2] = test system: A498 renal
[3] = test system: A549 NSCLC
[4] = test system: ACHN renal
[5] = test system: BT-549 breast
[6] = test system: CAKI-1 renal
[7] = test system: CCRF-CEM leukemia
[8] = test system: COLO 205 colon
[9] = test system: DU-145 prostate
[10] = test system: EKVX NSCLC
[11] = test system: HCC-2998 colon
[12] = test system: HCT-116 colon
[13] = test system: HCT-15 colon
[14] = test system: HL-60(TB) leukemia
[15] = test system: HOP-62 NSCLC
[16] = test system: HOP-92 NSCLC
[17] = test system: HS 578T breast
[18] = test system: HT29 colon
[19] = test system: IGROV1 ovarian
[20] = test system: K-562 leukemia
[21] = test system: KM12 colon
[22] = test system: LOX IMVI melanoma
[23] = test system: M14 melanoma
[24] = test system: MALME-3M melanoma
[25] = test system: MCF7 breast
[26] = test system: MDA-MB-231 breast
[27] = test system: MDA-MB-435
[28] = test system: MOLT-4 leukemia
[29] = test system: NCI-H226 lung
[30] = test system: NCI-H23 lung
[31] = test system: NCI-H460 lung
[32] = test system: NCI-H522 lung
[33] = test system: NCI/ADR-RES ovarian
[34] = test system: OVCAR-3 ovarian
[35] = test system: OVCAR-4 ovarian
[36] = test system: OVCAR-5 ovarian
[37] = test system: OVCAR-8 ovarian
[38] = test system: PC-3 prostate
[39] = test system: RPMI-8226 leukemia
[40] = test system: RXF 393 renal
[41] = test system: SF-268 CNS
[42] = test system: SF-295 CNS
[43] = test system: SF-539 CNS
[44] = test system: SK-MEL-2 melanoma
[45] = test system: SK-MEL-28 melanoma
[46] = test system: SK-MEL-5 melanoma
[47] = test system: SK-OV-3 ovarian
[48] = test system: SN12C renal
[49] = test system: SNB-19 CNS
[50] = test system: SNB-75 CNS
[51] = test system: SR leukemia
[52] = test system: SW-620 colon
[53] = test system: T-47D breast
[54] = test system: TK-10 renal
[55] = test system: U251 CNS
[56] = test system: UACC-257 melanoma
[57] = test system: UACC-62 melanoma
[58] = test system: UO-31 renal

SMILES: Cc1ccccc1NC(=O)Nc1nc2ccc([N+](=O)[O-])cc2s1
- GI50 [1]: 2.7 µM
- TGI [1]: 8.41 µM
- GI50 [2]: 1.89 µM
- TGI [2]: 4.41 µM
- GI50 [3]: 2.17 µM
- TGI [3]: 5.8 µM
- GI50 [4]: 1.88 µM
- TGI [4]: 4.53 µM
- GI50 [5]: 2.18 µM
- TGI [5]: 4.53 µM
- GI50 [6]: 1.68 µM
- TGI [6]: 4.02 µM
- GI50 [7]: 1.76 µM
- TGI [7]: 5.28 µM
- GI50 [8]: 1.61 µM
- TGI [8]: 3.16 µM
- GI50 [9]: 3.23 µM
- TGI [9]: 11.2 µM
- GI50 [10]: 2.16 µM
- TGI [10]: 6.01 µM
- GI50 [11]: 2.29 µM
- TGI [11]: 5.38 µM
- GI50 [12]: 2.24 µM
- TGI [12]: 5.21 µM
- GI50 [13]: 2.12 µM
- TGI [13]: 5.48 µM
- GI50 [14]: 1.79 µM
- TGI [14]: 3.87 µM
- GI50 [15]: 2.49 µM
- TGI [15]: 7.01 µM
- GI50 [16]: 1.59 µM
- TGI [16]: 4.19 µM
- GI50 [17]: 2.4 µM
- TGI [17]: 6.64 µM
- GI50 [18]: 2.03 µM
- TGI [18]: 4.96 µM
- GI50 [19]: 3.38 µM
- TGI [19]: 13.4 µM
- GI50 [20]: 1.53 µM
- TGI [20]: 4.76 µM
- GI50 [21]: 2.49 µM
- TGI [21]: 8.57 µM
- GI50 [22]: 1.83 µM
- TGI [22]: 3.53 µM
- GI50 [23]: 2.42 µM
- TGI [23]: 5.85 µM
- GI50 [24]: 2.1 µM
- TGI [24]: 4.99 µM
- GI50 [25]: 2.36 µM
- TGI [25]: 6.69 µM
- GI50 [26]: 2.74 µM
- TGI [26]: 8.94 µM
- GI50 [27]: 2.1 µM
- TGI [27]: 5.71 µM
- GI50 [28]: 1.76 µM
- TGI [28]: 4.02 µM
- GI50 [29]: 2.29 µM
- TGI [29]: 6.21 µM
- GI50 [30]: 1.79 µM
- TGI [30]: 4.7 µM
- GI50 [31]: 2.31 µM
- TGI [31]: 6.24 µM
- GI50 [32]: 1.47 µM
- TGI [32]: 4.24 µM
- GI50 [33]: 2.12 µM
- TGI [33]: 5.03 µM
- GI50 [34]: 1.84 µM
- TGI [34]: 4.33 µM
- GI50 [35]: 2.65 µM
- TGI [35]: 9.13 µM
- GI50 [36]: 2.98 µM
- TGI [36]: 11.3 µM
- GI50 [37]: 2.81 µM
- TGI [37]: 9.9 µM
- GI50 [38]: 1.78 µM
- TGI [38]: 4.23 µM
- GI50 [39]: 1.43 µM
- TGI [39]: 3.76 µM
- GI50 [40]: 1.89 µM
- TGI [40]: 4.29 µM
- GI50 [41]: 3.06 µM
- TGI [41]: 9.95 µM
- GI50 [42]: 1.72 µM
- TGI [42]: 3.61 µM
- GI50 [43]: 2.03 µM
- TGI [43]: 4.43 µM
- GI50 [44]: 1.98 µM
- TGI [44]: 4.49 µM
- GI50 [45]: 2.26 µM
- TGI [45]: 6.29 µM
- GI50 [46]: 1.59 µM
- TGI [46]: 3.19 µM
- GI50 [47]: 2.05 µM
- TGI [47]: 5.43 µM
- GI50 [48]: 2.38 µM
- TGI [48]: 7.12 µM
- GI50 [49]: 2.72 µM
- TGI [49]: 7.77 µM
- GI50 [50]: 1.77 µM
- TGI [50]: 4.78 µM
- GI50 [51]: 1.73 µM
- TGI [51]: 4.11 µM
- GI50 [52]: 2.54 µM
- TGI [52]: 7.86 µM
- GI50 [53]: 2.22 µM
- TGI [53]: 6.28 µM
- GI50 [54]: 2.9 µM
- TGI [54]: 7.11 µM
- GI50 [55]: 1.77 µM
- TGI [55]: 3.67 µM
- GI50 [56]: 1.89 µM
- TGI [56]: 5.12 µM
- GI50 [57]: 2.46 µM
- TGI [57]: 10.6 µM
- GI50 [58]: 2.02 µM
- TGI [58]: 6.33 µM
